From paper PMC3594701 (Journal of acquired immune deficiency syndromes (1999), 2011)
“Also recorded” adds a separate entry of the source.

Experiments:
[1] = IC accumulation: ratio of IC drug to drug in plasma; settings: human, oral, GM IC to Plasma Ratio
[2] = Steady-state plasma pharmacokinetics; format: in vivo, human; settings: for Cmax / concentration at 24 h: human; for Cmax: GM Cmax; for concentration at 24 h: GM Ctrough
[3] = Steady-state intracellular; format: in vivo, human; settings: IC (PBMC); for GM AUC (darunavir, ritonavir) / GM AUC: AUC0–24; for Cmax / concentration at 24 h: human, oral; for Cmax: GM Cmax; for concentration at 24 h: GM Ctrough
[4] = PBMC (intracellular)/plasma, Cmax, group 1, period 3 (day 49): darunavir/ritonavir 800/100 mg once daily, without raltegravir
[5] = PBMC (intracellular)/plasma, Cmax, group 2, period 3 (day 49): darunavir/ritonavir 800/100 mg once daily, without raltegravir
[6] = PBMC (intracellular)/plasma, Ctrough, group 1, period 3 (day 49): darunavir/ritonavir 800/100 mg once daily, without raltegravir
[7] = PBMC (intracellular)/plasma, Ctrough, group 2, period 3 (day 49): darunavir/ritonavir 800/100 mg once daily, without raltegravir
[8] = intracellular (PBMC) / plasma, AUC (darunavir, ritonavir), group 1, period 2 (day 35): darunavir/ritonavir 800/100 mg once daily + raltegravir 400 mg twice daily
[9] = intracellular (PBMC) / plasma, AUC (darunavir, ritonavir), group 2, period 2 (day 35): darunavir/ritonavir 800/100 mg once daily + raltegravir 800 mg once daily
[10] = intracellular (PBMC) / plasma, AUC, group 1, period 3 (day 49): darunavir/ritonavir 800/100 mg once daily, without raltegravir
[11] = intracellular (PBMC) / plasma, AUC, group 2, period 3 (day 49): darunavir/ritonavir 800/100 mg once daily, without raltegravir
[12] = intracellular (PBMC) / plasma, Cmax, group 1, period 2 (day 35): raltegravir 400 mg twice daily + darunavir/ritonavir 800/100 mg once daily
[13] = intracellular (PBMC) / plasma, Cmax, group 2, period 2 (day 35): raltegravir 800 mg once daily + darunavir/ritonavir 800/100 mg once daily
[14] = intracellular (PBMC) / plasma, Ctrough, group 1, period 2 (day 35): raltegravir 400 mg twice daily + darunavir/ritonavir 800/100 mg once daily
[15] = intracellular (PBMC) / plasma, Ctrough, group 2, period 2 (day 35): raltegravir 800 mg once daily + darunavir/ritonavir 800/100 mg once daily
[16] = group 1, period 2 (day 35): raltegravir 400 mg twice daily + darunavir/ritonavir 800/100 mg once daily
[17] = group 1, period 3 (day 49): darunavir/ritonavir 800/100 mg once daily, without raltegravir
[18] = group 2, period 3 (day 49): darunavir/ritonavir 800/100 mg once daily, without raltegravir
[19] = oral, group 1, period 3 (day 49): darunavir/ritonavir 800/100 mg once daily, without raltegravir
[20] = oral, group 2, period 3 (day 49): darunavir/ritonavir 800/100 mg once daily, without raltegravir
[21] = PBMC, group 2, period 2 (day 35): raltegravir 800 mg once daily + darunavir/ritonavir 800/100 mg once daily

Compound: CC(C)CN(C[C@@H](O)[C@H](Cc1ccccc1)NC(=O)O[C@H]1CO[C@H]2OCC[C@H]21)S(=O)(=O)c1ccc(N)cc1 [Darunavir, darunavir]
- Kp [1, 4]: 6.8
- Kp [1, 5]: 4.8
- Kp [1, 6]: 4.8
- Kp [1, 7]: 4.4
- Kp [1, 8]: 5.3
- Kp [1, 9]: 5.6
- Kp [1, 10]: 5.3
- Kp [1, 11]: 4.9
- Kp [1, 12]: 6.8
- Kp [1, 13]: 6.3
- Kp [1, 14]: 4.4
- Kp at 24 h [1, 15]: 4.3

Compound: CC(C)c1nc(CN(C)C(=O)N[C@H](C(=O)N[C@@H](Cc2ccccc2)C[C@H](O)[C@H](Cc2ccccc2)NC(=O)OCc2cncs2)C(C)C)cs1 [Ritonavir, ritonavir]
- Kp [1, 4]: 13.5
- Kp [1, 5]: 5.2
- Kp [1, 6]: 11.7
- Kp [1, 7]: 10.6
- Kp [1, 8]: 10
- Kp [1, 9]: 6.9
- Kp [1, 10]: 9.5
- Kp [1, 11]: 6.5
- Kp [1, 12]: 13.8
- Kp [1, 13]: 5.7
- Kp [1, 14]: 12
- Kp at 24 h [1, 15]: 10.1
- GM AUC (darunavir, ritonavir) ([2]; group 1, period 2 (day 35): darunavir/ritonavir 800/100 mg once daily + raltegravir 400 mg twice daily, AUC0–24): 4299 ng/h/mL
- GM AUC (darunavir, ritonavir) ([2]; group 1, period 2 (day 35): darunavir/ritonavir 800/100 mg once daily + raltegravir 400 mg twice daily, AUC0–24, listed as ritonavir): 4299 (3823–5176) ng·h^−1·mL^−1
- GM Ctrough [2, 16]: 48 ng/mL
- GM Ctrough [2, 17]: 44 ng/mL
- GM AUC ([2]; group 1, period 3 (day 49): darunavir/ritonavir 800/100 mg once daily, without raltegravir, AUC0–24): 4568 ng/h/mL
- GM AUC ([2]; group 1, period 3 (day 49): darunavir/ritonavir 800/100 mg once daily, without raltegravir, AUC0–24, listed as ritonavir): 4568 (4070–5427) ng·h^−1·mL^−1
- GM AUC (darunavir, ritonavir) ([2]; group 2, period 2 (day 35): darunavir/ritonavir 800/100 mg once daily + raltegravir 800 mg once daily, AUC0–24): 4359 ng/h/mL
- GM AUC (darunavir, ritonavir) ([2]; group 2, period 2 (day 35): darunavir/ritonavir 800/100 mg once daily + raltegravir 800 mg once daily, AUC0–24, listed as ritonavir): 4359 (3816–5443) ng·h^−1·mL^−1
- GM Ctrough ([2]; group 2, period 2 (day 35): raltegravir 800 mg once daily + darunavir/ritonavir 800/100 mg once daily): 34 ng/mL
- GM Ctrough [2, 18]: 36 ng/mL
- GM AUC ([2]; group 2, period 3 (day 49): darunavir/ritonavir 800/100 mg once daily, without raltegravir, AUC0–24): 4516 ng/h/mL
- GM AUC ([2]; group 2, period 3 (day 49): darunavir/ritonavir 800/100 mg once daily, without raltegravir, AUC0–24, listed as ritonavir): 4516 (3798–5986) ng·h^−1·mL^−1
- Cmax [2, 16]: 483 ng/mL
- Cmax [2, 19]: 528 ng/mL
- Cmax [2, 20]: 527 ng/mL
- concentration at 24 h [2, 19]: 44 ng/mL
- concentration at 24 h ([2]; oral, group 2, period 2 (day 35): raltegravir 800 mg once daily + darunavir/ritonavir 800/100 mg once daily): 34 ng/mL
- concentration at 24 h [2, 20]: 36 ng/mL
- PK exposure parameters with versus without raltegravir ([2]; periods 2 and 3): comparable; also recorded: not affected
- GM AUC (darunavir, ritonavir) ([3]; group 1, period 2 (day 35): darunavir/ritonavir 800/100 mg once daily + raltegravir 400 mg twice daily): 33,789 ng·h^−1·mL^−1
- GM Ctrough [3, 16]: 458 ng/mL
- GM AUC [3, 17]: 36,769 ng·h^−1·mL^−1
- GM AUC (darunavir, ritonavir) ([3]; group 2, period 2 (day 35): darunavir/ritonavir 800/100 mg once daily + raltegravir 800 mg once daily): 28,683 ng·h^−1·mL^−1
- GM AUC [3, 18]: 27,652 ng·h^−1·mL^−1
- Cmax ([3]; PBMC (intracellular), group 1, period 3 (day 49): darunavir/ritonavir 800/100 mg once daily, without raltegravir): 4040 ng/mL
- Cmax ([3]; PBMC (intracellular), group 2, period 3 (day 49): darunavir/ritonavir 800/100 mg once daily, without raltegravir): 2610 ng/mL
- Cmax ([3]; PBMC, group 1, period 2 (day 35): raltegravir 400 mg twice daily + darunavir/ritonavir 800/100 mg once daily): 3880 ng/mL
- Cmax [3, 21]: 3290 ng/mL
- concentration at 24 h ([3]; PBMC, group 1, period 3 (day 49): darunavir/ritonavir 800/100 mg once daily, without raltegravir): 478 ng/mL
- concentration at 24 h [3, 21]: 329 ng/mL
- concentration at 24 h ([3]; PBMC, group 2, period 3 (day 49): darunavir/ritonavir 800/100 mg once daily, without raltegravir): 369 ng/mL
